According to paper PMC4592898, “Biochemical Characterisation of Phage Pseudomurein Endoisopeptidases PeiW and PeiP Using Synthetic Peptides” (Archaea, 2015):

How the values were obtained:
PeiW = target: T1, PeiW (Methanothermobacter phage psiM100, UniProt Q7LYX0); experiment: inhibition of EγApNA hydrolysis, […] nm, […] min preincubation; format: biochemical; details: for inhibition at 1000 µM: read-out: % inhibition at 1 mM
T1 construct: N-terminal His-tag kept, pET151D, E. coli BL21-Rosetta 2; 317 residues and 37,219 Da with tag; monomer
T1 sequence (Q7LYX0 whole entry): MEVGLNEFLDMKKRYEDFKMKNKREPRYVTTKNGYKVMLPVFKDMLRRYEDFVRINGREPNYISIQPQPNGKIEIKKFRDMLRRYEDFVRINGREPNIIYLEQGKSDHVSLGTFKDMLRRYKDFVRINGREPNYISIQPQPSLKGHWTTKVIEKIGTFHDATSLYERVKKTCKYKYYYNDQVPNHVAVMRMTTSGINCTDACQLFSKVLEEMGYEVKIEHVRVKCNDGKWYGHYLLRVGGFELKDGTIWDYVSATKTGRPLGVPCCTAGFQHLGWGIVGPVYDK

PeiP = target: T2, PeiP (Methanobacterium phage psiM2, UniProt Q77WJ4); experiment: as above; format: biochemical; details: read-out: % inhibition at 1 mM
T2 construct: N-terminal His-tag kept, pET151D, E. coli BL21-Rosetta 2; 338 residues and 39,537 Da with tag; monomer
T2 sequence (Q77WJ4 whole entry): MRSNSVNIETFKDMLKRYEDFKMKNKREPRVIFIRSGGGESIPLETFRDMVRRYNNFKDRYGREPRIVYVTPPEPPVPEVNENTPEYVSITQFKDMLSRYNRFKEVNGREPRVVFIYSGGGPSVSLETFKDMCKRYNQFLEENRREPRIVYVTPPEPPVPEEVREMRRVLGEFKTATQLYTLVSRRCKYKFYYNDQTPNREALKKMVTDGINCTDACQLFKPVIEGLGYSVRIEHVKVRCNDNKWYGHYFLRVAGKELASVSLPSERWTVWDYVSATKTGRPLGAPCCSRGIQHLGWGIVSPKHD

Compound	% inhibition at 1 mM (PeiW; 60 °C, pH 7.85, 10 mM CaCl2, 10 mM TCEP)	inhibition at 1000 µM (PeiW)	inhibition at 1000 µM (PeiP)
O=S(=O)(F)Cc1ccccc1 [PMSF]	10%		
CN(C)c1cccc2c(S(=O)(=O)NCCCCCN)cccc12 [Dansylcadaverine]		60%	50%
NCCSSCCN [Cystamine]		100%	100%
CC(C)C[C@H](NC(=O)[C@@H]1O[C@H]1C(=O)O)C(=O)NCCCCNC(=N)N [E64]		10%	30%
